Results from US8198321B2, “Anti-microorganism terpenic composition” (priority 2006, dated 2012).

Tests used:
HIV-1Bal (R5-tropic) [1] = test: Test for inhibition of macrophage infection; type: cell-based
Excerpt: (§1) In order to carry out cytotoxicity and infection-inhibiting activity tests, three cell types and two viral strains were used. This involved a laboratory strain HIV-1NDK(X4-tropic) which was amplified by lymphocytes originating from healthy donors, and a primary strain HIV-1Bal (R5-tropic) which was amplified by macrophages.
(§2) As regards the cell types, macrophages and dendritic cells were obtained from peripheral blood mononuclear cells. In addition, lymphocytes were provided.
(§3) As regards the inhibitory activity, the macrophages or the dendritic cells are incubated with viral particles of the abovementioned strains, HIV-1NDK(X4-tropic) or HIV-1Bal (R5-tropic), in the presence and absence of the terpenic compositions. The cells are subsequently washed and then put back in culture and, finally, centrifuged. The supernatants are then recovered and the viral particles are lyzed in order to measure the concentration of a viral protein using the ELISA assay. In this way, the inhibitory activity of the terpenic compositions is evaluated by comparison between the nontreated infected cells and the treated infected cells.
(§4) Next, the inhibition of the infection of the macrophages was evaluated. Since the latter are potential reservoirs for HIV, it is a question of measuring the ability of the terpenic composition to prevent infection of the macrophages.

HIV-1NDK (X4-tropic) [2] = test: Test for inhibition of macrophage infection; type: cell-based
Excerpt: as §1, §2, §3, §4

HIV-1Bal (R5-tropic) [3] = test: Test for inhibition of dendritic cell infection; type: cell-based
Excerpt: as §1, §2, §3
(§5) Furthermore, tests were carried out on the inhibition of dendritic cell infection, since these cells are involved in HIV transmission at the mucosal level.

HIV-1NDK (X4-tropic) [4] = test: Test for inhibition of dendritic cell infection; type: cell-based
Excerpt: as §1, §2, §3, §5

HIV-1Bal (R5-tropic) [5] = test: Test for inhibition of transfer from dendritic cells to T lymphocytes; type: cell-based
Method: (§6) In addition, tests for transfer of the virus, from the dendritic cells to autologous T lymphocytes, i.e. T lymphocytes originating from the same stem cells, were carried out.
(§7) For this, dendritic cells are transferred and incubated with each of the terpenic compositions and the virus. Next, after washing, autologous T lymphocytes are added in a ratio of one dendritic cell to five T lymphocytes. The concentration of viral proteins of the abovementioned type is then evaluated by means of the ELISA assay.
(§8) Dendritic cells express, at their surface, an adhesion protein, DC-SIGN, which forms a viral receptor capable of capturing HIV and of facilitating the infection of permissive cells via a “trans-infection” mechanism. This is because the DC-SIGN receptor can interact with the envelope of HIV and hold the virion in an infectious state so as to subsequently transmit it to permissive T lymphocytes in the adjacent lymph nodes.

HIV-1NDK (X4-tropic) [6] = test: as above; type: cell-based
Method: as §6, §7, §8

X4 strains = test: Direct activity on X4 strains (noninfectious / detergent activity); set-up: species or system HIV-1; conditions: diluted to 1/100th
[7] = diluted to 1/200th, listed as Third
[8] = diluted to 1/200th, listed as third preparation
[9] = diluted to 1/2000th, listed as Fourth
[10] = diluted to 1/2000th, listed as fourth preparation

Substance: zinc aceto-salicylo-borneolate [Fifth preparation]
- inhibition of infection of macrophages with strains of the R5-tropic group (HIV-1Bal (R5-tropic) [1]; diluted to 50%): more than 50%

Substance: zinc ascorbo-camphorate [Third preparation]
- inhibition of macrophage infection, HIV-1Bal (R5-tropic) (HIV-1Bal (R5-tropic) [1]; [7]): >95%
- inhibition of macrophage infection, HIV-1Bal (R5-tropic) (HIV-1Bal (R5-tropic) [1]; [8]): more than 95%
- inhibition of macrophage infection, HIV-1Bal (R5-tropic) (HIV-1Bal (R5-tropic) [1]; diluted to 1/2000th): the same results
- inhibition of macrophage infection, HIV-1NDK (X4-tropic) (HIV-1NDK (X4-tropic) [2]; [7]): >95%
- inhibition of macrophage infection, HIV-1NDK (X4-tropic) (HIV-1NDK (X4-tropic) [2]; [8]): more than 95%
- inhibition of macrophage infection, HIV-1NDK (X4-tropic) (HIV-1NDK (X4-tropic) [2]; diluted to 1/2000th): the same results
- inhibition of dendritic cell infection, HIV-1Bal (R5-tropic) (HIV-1Bal (R5-tropic) [3]; [7]): >95%
- inhibition of dendritic cell infection, HIV-1Bal (R5-tropic) (HIV-1Bal (R5-tropic) [3]; [8]): more than 95%
- inhibition of dendritic cell infection, HIV-1NDK (X4-tropic) (HIV-1NDK (X4-tropic) [4]; [7]): >95%
- inhibition of dendritic cell infection, HIV-1NDK (X4-tropic) (HIV-1NDK (X4-tropic) [4]; [8]): more than 95%
- inhibition of transfer from dendritic cells to T lymphocytes, HIV-1Bal (R5-tropic) (HIV-1Bal (R5-tropic) [5]; [7]): >95%
- inhibition of transfer from dendritic cells to T lymphocytes, HIV-1Bal (R5-tropic) (HIV-1Bal (R5-tropic) [5]; [8]): more than 95%
- inhibition of transfer from dendritic cells to T lymphocytes, HIV-1Bal (R5-tropic) (HIV-1Bal (R5-tropic) [5]; diluted to 1/2000th): the same results
- inhibition of transfer from dendritic cells to T lymphocytes, HIV-1NDK (X4-tropic) (HIV-1NDK (X4-tropic) [6]; [7]): >95%
- inhibition of transfer from dendritic cells to T lymphocytes, HIV-1NDK (X4-tropic) (HIV-1NDK (X4-tropic) [6]; [8]): more than 95%
- detergent activity with respect to the X4 strains (X4 strains): has a detergent activity
- rendering the X4 strains noninfectious (X4 strains): capable of rendering the X4 strains noninfectious

Substance: zinc cinnamo-camphorate [Fourth preparation]
- inhibition of macrophage infection, HIV-1Bal (R5-tropic) (HIV-1Bal (R5-tropic) [1]; [9]): >90%
- inhibition of macrophage infection, HIV-1Bal (R5-tropic) (HIV-1Bal (R5-tropic) [1]; [10]): the same results
- inhibition of macrophage infection, HIV-1NDK (X4-tropic) (HIV-1NDK (X4-tropic) [2]; [9]): >90%
- inhibition of macrophage infection, HIV-1NDK (X4-tropic) (HIV-1NDK (X4-tropic) [2]; [10]): the same results
- inhibition of dendritic cell infection, HIV-1Bal (R5-tropic) (HIV-1Bal (R5-tropic) [3]; diluted to 1/2000th): 0%
- inhibition of dendritic cell infection, HIV-1NDK (X4-tropic) (HIV-1NDK (X4-tropic) [4]; diluted to 1/2000th): 0%
- inhibition of transfer from dendritic cells to T lymphocytes, HIV-1Bal (R5-tropic) (HIV-1Bal (R5-tropic) [5]; diluted to 1/2000th): 0%
- inhibition of transfer from dendritic cells to T lymphocytes, HIV-1NDK (X4-tropic) (HIV-1NDK (X4-tropic) [6]; diluted to 1/2000th): 0%
